The text below walks through data of US20120277316A1, “METHODS AND COMPOSITIONS FOR TREATING AND PREVENTING PARENTERAL NUTRITION ASSOCIATED LIVER DISEASE” (University of Tennesse Research Foundation a university, priority 2010, published 2012).

Holding throughout (type): cell-based
Series [1] in a line: Cell viability by trypan blue staining. The note with it: human, HepG2 cells; 2 hour treatment with CDCA alone; trypan blue; read-out: viable cells. The procedure:
(§1) Experimental Design. HepG2 cells were plated and grown to 95% confluence for all experiments, except for fluorescent cell staining, where cells where grown to 50% confluence. Cells were treated with CDCA […] (Sigma-Aldrich), ±EPA 1-10 μM (Nu-check Prep, Elysian, Minn., United States of America), and ±DHA 10 μM (Nu-check Prep). […] Cells were treated for 0.5, 1, 1.5, 2, 4 hour for mRNA analysis by quantitative real time RT-PCR.
(§2) Cell Viability. Cell viability was evaluated after treating cells, as described above, followed by trypsinization in order to disperse cells into a 0.2% trypan blue (Sigma-Aldrich) cell suspension mixture. After staining, 10 μL of cell suspension was placed on a hemocytometer with a glass cover slip and evaluated using an inverted microscope (25× magnification). All cells were counted and viability was accessed.

Series [2] has as its system HepG2 cells. Briefly: Nuclear staining with ethidium bromide/acridine orange. The note with it: cells treated with the substance alone, 2 hours. The procedure:
Nuclear staining. Cells were grown on glass inserts and once 50% confluence was achieved, cells were treated with CDCA±EPA for 2 hours. Immediately following treatment, cells were washed with phosphate buffered saline (PBS), fixed with methanol (−10° C.) for 15 minutes, then washed with PBS. Fixed cells were then stained for 5 minutes with ethidium bromide (100 μg/ml) and acridine orange (100 μg/ml) (EB/AO) dye mixture (Sigma-Aldrich) in PBS. Following staining, cells underwent 5 washes prior to being mounted on glass slides using VECTASHIELD® mounting medium and analyzed using an Olympus America Inc., IX50-FLA inverted reflected light fluorescence microscope (Lake Success, N.Y., United States of America).

Series [3] has as its system caspase 3/7 activity in HepG2 cells. Put plainly: Apo-ONE Homogeneous Caspase-3/7 Assay, CDCA-induced apoptosis. The note with it: for caspase-3/7 attenuation: HepG2 cells, CDCA 200 μM, 12 hours, 10 μM EPA, 10 μM DHA, or 5 μM EPA+5 μM DHA. The procedure:
Cultured HepG2 cells were treated with 50, 100, or 200 μM CDCA in the presence and absence of 10 μM EPA, 10 μM DHA, or 5 μM EPA+5 μM DHA. Controls included cells incubated with vehicle alone (EtOH). Apoptosis was evaluated after 4, 8, 12, 18, and 24 hours using the Apo-ONE®
(§3) Homogeneous Caspase-3/7 Assay (Promega Corporation, Madison, Wis., United States of America). Specific apoptotic mediators (Fas and TRAIL-R2) were evaluated at 0.5, 1, 1.5, 2, and 4 hrs using quantitative real-time RT-PCR.
Experimental Design. HepG2 cells were plated and grown to 95% confluence for all experiments, except for fluorescent cell staining, where cells where grown to 50% confluence. Cells were treated with CDCA […] (Sigma-Aldrich), ±EPA 1-10 μM (Nu-check Prep, Elysian, Minn., United States of America), and ±DHA 10 μM (Nu-check Prep). HepG2 cells were treated for 4, 8, 12, 18, 24 hours for cell viability and caspase assays. Cells were treated for 0.5, 1, 1.5, 2, 4 hour for mRNA analysis by quantitative real time RT-PCR.
Caspase assay. Apoptosis was evaluated using the Apo-ONE® Homogeneous Caspase-3/7 Assay purchased from Promega Corporation (Madison, Wis., United States of America) and performed according to the manufacturer's instructions. HepG2 cells were treated for 4, 8, 12, 18, 24 hours followed by the addition of caspase-3/7 reagent and incubation for 4 hours in the dark on a rocking shaker at low speed. Results were read at fluorescein 485 nm/535 nm with a Victor 2, Perkin-Elmer Wallace 1420 multilabel counter (Shelton, Conn., United States of America).

The subject of series [4] is pro-inflammatory cytokine (IL-6) mRNA in HepG2 cells. Briefly: IL-6 mRNA by quantitative RT-PCR. The note with it: CDCA 200 uM, 2 hour incubation. The procedure:
Quantitative RT-PCR. Total RNA was isolated from confluent cultures according to manufacturer's instructions with TRIzol™ reagent (Invitrogen, Carlsbad, Calif., United States of America). First-strand cDNAs were synthesized from 2 μg of total RNA in a 21 μl reaction volume using the SuperScript™ First-Strand Synthesis System for RT-PCR (Invitrogen) in accordance with the manufacturer's instructions. Quantitative PCR was performed in triplicate using the Model 7500 Sequence Detection System (Applied Biosystems, Foster City, Calif., United States of America). Independent PCRs were performed using the same cDNA for both the gene of interest and the 18S rRNA, using the SYBR Green PCR Master Mix (Applied Biosystems). Specific primers were designed for the genes of interest (Fas, TRAIL-R2, and IL-6). […] The change in fluorescence of SYBR Green in every cycle was monitored by the system software, and the threshold cycle (CT) above the background for each reaction was calculated. […] The mRNA expression level relative to the calibrator was expressed as 2^−ΔΔCT. […]
IL6 mRNA levels were measured by quantitative RT-PCR after a 2 hour incubation in a HepG2 cells. […] Statistical significance was determined using an ANOVA with Tukey's LSD. […] Statistical significance was determined using an ANOVA with Tukey's LSD.

The subject of the next series is Fas mRNA in HepG2 cells. Briefly: Fas mRNA by quantitative real-time RT-PCR. The note with it: HepG2 cells incubated with CDCA 200 μM alone; 0.5 hours; relative to vehicle control. As to the method:
as §3
Experimental Design. HepG2 cells were plated and grown to 95% confluence for all experiments, except for fluorescent cell staining, where cells where grown to 50% confluence. […] HepG2 cells were treated for 4, 8, 12, 18, 24 hours for cell viability and caspase assays. Cells were treated for 0.5, 1, 1.5, 2, 4 hour for mRNA analysis by quantitative real time RT-PCR.
Quantitative RT-PCR. Total RNA was isolated from confluent cultures according to manufacturer's instructions with TRIzol™ reagent (Invitrogen, Carlsbad, Calif., United States of America). First-strand cDNAs were synthesized from 2 μg of total RNA in a 21 μl reaction volume using the SuperScript™ First-Strand Synthesis System for RT-PCR (Invitrogen) in accordance with the manufacturer's instructions. Quantitative PCR was performed in triplicate using the Model 7500 Sequence Detection System (Applied Biosystems, Foster City, Calif., United States of America). […] The change in fluorescence of SYBR Green in every cycle was monitored by the system software, and the threshold cycle (CT) above the background for each reaction was calculated. […] The mRNA expression level relative to the calibrator was expressed as 2^−ΔΔCT.
In general terms: Real-time PCR tracks product formation cycle by cycle.

For series [5], the system named is HepG2 cells. Briefly: Cell viability by trypan blue staining. As to the method: as §1, §2

Consider `C[C@H](CCC(=O)O)[C@H]1CC[C@H]2[C@@H]3[C@H](O)C[C@@H]4C[C@H](O)CC[C@]4(C)[C@H]3CC[C@]12C` [CDCA, chenodeoxycholic acid], for which, in series [1], the viability at 2 h came out at 88%. The “EB/AO nuclear staining appearance” value with HepG2 cells [2] is on record as “cellular integrity is lost”. Besides, the “apoptotic effect of CDCA (caspase 3/7 activity)” value in series [3] (CDCA 50-200 μM, across all time points (4-24 hours)) is given as “dose-dependent”. Moreover, in series [3] (HepG2 cells treated with 200 μM CDCA), the “time of peak caspase activity” value stood at 12 h. Moreover, the “pro-inflammatory cytokine (IL-6) mRNA expression” value in series [4] is listed as “significantly increased”. The “increase in Fas mRNA levels” value with Fas mRNA in HepG2 cells amounted to 4.7 fold.

In the case of `CC/C=C\C/C=C\C/C=C\C/C=C\C/C=C\C/C=C\CCC(=O)O` [DHA, docosahexaenoic acid], the caspase-3/7 attenuation in series [3] is on record as 9%.

Compound `CC/C=C\C/C=C\C/C=C\C/C=C\C/C=C\CCCC(=O)O` [EPA, eicosapentaenoic acid] showed a viable cells in the series with HepG2 cells [5] (2 hour treatment with CDCA and EPA, trypan blue) of 100%. Besides, the “total cell count relative to cells exposed to medium alone” value in the series with HepG2 cells [5] (treatment with CDCA and EPA) is reported as 75%. For the same compound, in series [3], the caspase-3/7 attenuation worked out at 22%.
